Experimental data reported in patent publication EP0072532A1, “5(6)-Phenyl-sulfonyloxy-benzimidazole derivatives, process for their production, pharmaceutical compositions containing them and their use against liver disorders” (priority 1981, dated 1983).
Where two headings read alike, the source gives them in different places.

Assays:
Fasciola hepatica [1] = assay: Chemotherapeutic test against adult liver flukes in artificially infected rats (reduction of egg count per gram faeces), oral application; type: in vivo; details: Ratte
Source text: (§1) Zur Feststellung der Wirkung der erfindungsgemäßen Verbindungen gegen Fasciolide wurden chemotherapeutische Untersuchungen bei ca. 250 g schweren Ratten, bei 2 - 3,5 kg schweren Kaninchen oder an ca. 25 - 30 kg schweren Schaflämmern ausgeführt. Die Versuchstiere wurden mit 15, mit 50 bzw. mit 350 Metazerkarien von Fasciola hepatica artifiziell oral infiziert. Nach Ablauf der Präpatenzperiode (Zeit zwischen Infektion und Geschlechtsreife der Parasiten mit beginnender Ausscheidung von Vermehrungsprodukten) wurde der Parasitenbefall durch Kotuntersuchungen gesichert. Der qualitativ-quantitative Nachweis von Eiern erfolgte nach der Telemann-Anreicherung (Deutsche Medizinische Wochenschrift "34: 1510, 1908).
(§2) Unmittelbar nach der Bestimmung der Eizahl pro Gramm Kot wurde die Behandlung der Versuchstiere (im allgemeinen 3 - 4 Tiere pro Wirkstoff, mindestens aber zwei) vorgenommen. Den Tieren wurde oral eine Suspension von unterschiedlicher Wirkstoffmenge in jeweils festgelegten Volumen (Ratte: 0,5 ml/Tier, Kaninchen: 2 ml/Tier, Schaf: 10 ml/Tier) in einer Tylose-Suspension appliziert. Jeweils am 7., 14. und 28. Tag nach der Behandlung wurde wiederum nach der vorstehend angegebenen Methode die Eizahl pro Gramm Kot ermittelt und die prozentuale Abnahme im Vergleich zum Ausgangswert vor der Behandlung und in Vergleich zu unbehandelten Kontrolltieren errechnet.
(§3) Mit einigen erfindungsgemäßen Verbindungen wurden außerdem beim Fasciola-Befall noch eine zusätzliche Prüftechnik angewandt: Nach Abschluß der Präpatenzperiode wurde bei Fasciola-positiven Schafen ein künstlicher Gallengang geschaffen, der am Ausgang der Gallenblase ein Sieb enthielt, so daß die nach der Behandlung abgetöteten Leberegel in der Gallenblase aufgefangen werden konnten. Vier bis sieben Tage nach der Behandlung wurden die so operierten und dann behandelten Schafe getötet, die abgetöteten Leberegel in der Gallenblase so wie noch eventuell in der Leber vorhandene Leberegel gezählt und von der gesamten Wurmbürde der Prozentsatz der abgetöteten Parasiten berechnet. Bei ausgewählten Substanzen wurden über die Kotuntersuchung hinaus auch die behandelten Tiere seziert und die Leber auf eine eventuelle Rest-Wurmbürde von Fasciola hepatica untersucht.

Fasciola hepatica [2] = assay: Chemotherapeutic test against adult liver flukes in artificially infected rabbits (reduction of egg count per gram faeces), oral application; type: in vivo; details: Kaninchen
Source text: as §1, with “gesichert.” for “gesichert. Der qualitativ-quantitative Nachweis von Eiern erfolgte nach der Telemann-Anreicherung (Deutsche Medizinische Wochenschrift "34: 1510, 1908).”
as §2, §3

Fasciola hepatica [3] = assay: Chemotherapeutic test against adult liver flukes in artificially infected sheep (egg count reduction / killed flukes), oral application; type: in vivo, Schaf
Source text: as §1, §2, §3

in vivo = details: sheep, quotient of Dosis tolerata maxima and applied dose, read-out: Sicherheits-faktor
Source text: Eine einmalige Verabreichung der erfindungsgemäßen Wirkstoffe in den angegebenen Dosierungen führt zu einem völligen Aufhören der Eiausscheidung und einer nahezu 100 %igen Befreiung der Tiere von Fasciola hepatica. Alle Dosierungen wurden von den Tieren ohne Nebenerscheinungen vertragen. Dieses wird durch den Sicherheitsfaktor unterstrichen, der wesentlich günstiger ist als bei den zum Vergleich herangezogenen Wirkstoffen
Der Sicherheitsfaktor gibt den Quotienten aus Dosis tolerate maxima und angewandter Dosis an. Die Ergebnisse dieser Versuche sind in der nachstehenden Tabelle zusammengestellt.

[4] = 75 mg/kg peroral, adult liver flukes

Structure (SMILES) | Wirkung % (Fasciola hepatica [1]; 50 mg/kg peroral) [%] | Wirkung % (Fasciola hepatica [1]; 75 mg/kg peroral) [%] | Wirkung % (Fasciola hepatica [2]; [4]) [%] | Wirkung % (Fasciola hepatica [2]; <50 mg/kg peroral, adult liver flukes) [%] | Wirkung % (Fasciola hepatica [3]; Schaf, 7,5 mg/kg peroral) [%] | Wirkung % (Fasciola hepatica [3]; Schaf, 10,0 mg/kg peroral) [%] | Wirkung % (Fasciola hepatica [1]; 4 mg/kg peroral) [%] | Wirkung % (Fasciola hepatica [1]; 8 mg/kg peroral) [%] | selectivity ratio (in vivo; applied dose 3,0 mg/kg (Schaf)) | Wirkung % (Fasciola hepatica [2]; 4 mg/kg peroral, death printed instead of an efficacy value) | Wirkung % (Fasciola hepatica [3]; Schaf, 1,5 mg/kg peroral) [%] | Wirkung % (Fasciola hepatica [3]; Schaf, 3,0 mg/kg peroral) [%] | Wirkung % (Fasciola hepatica [1]; 135 mg/kg peroral) [%] | Wirkung % (Fasciola hepatica [1]; 200 mg/kg peroral) [%] | selectivity ratio (in vivo; applied dose 3,75 mg/kg (Schaf)) | selectivity ratio (in vivo; applied dose 7,5 mg/kg (Schaf)) | Wirkung % (Fasciola hepatica [2]; 50 mg/kg peroral, adult liver flukes) [%] | Wirkung % (Fasciola hepatica [3]; Schaf, 3,75 mg/kg peroral)
CSc1nc2cc(OS(=O)(=O)c3cccc(C(F)(F)F)c3)ccc2[nH]1 [Beispiel 1, 5(6)-(3-Trifluormethyl-phenylsulfonyloxy)-2-methylmercapto-benzimidazol] | 80 | 100 | 100 | 100 | >95 | 100 | – | – | – | – | – | – | – | – | – | – | – | –
O=[N+]([O-])c1cc(Cl)cc(-c2cc(Cl)cc([N+](=O)[O-])c2O)c1O [Niclofolan, 5,5'-Dichlor-2,2`-dihydroxy-3,3'-dinitro-phenyl] | – | – | – | – | – | – | 80 | 90 | 4.4 | Exitus | <50 | >90 | – | – | – | – | – | –
CC(=O)Oc1c(I)cc(I)cc1C(=O)Nc1ccc(Cl)cc1 [Clioxanide, 2-Acetoxy-4-chlor-3,5-dijod-benzanilid] | – | – | 0 | – | >90 | – | – | – | – | – | – | – | 0 | 0 | 30 | 15 | 0 | ca.50%
